Format in all cases: in vivo
Experiment [1] deals with Anopheles stephensi. Nature of the experiment: 12 well plate knockdown test. As to conditions: 1 h, read-out: Anopheles stephensi 1 hour % KD; for pest or weed control at 0.2 ppm: Rate 0.2 PPM; for pest or weed control at 2 ppm: Rate 2 PPM; for pest or weed control at 20 ppm: Rate 20 PPM; for pest or weed control at 200 ppm: Rate 200 PPM. The procedure: (§1) The individual wells of a twelve (12) well tissue culture plates were treated with 100 μl of an ethanol solution containing a test compound at a defined concentration. Once the deposits were dry, five non-blood fed adult female Aedes aegypti or Anopheles stephensi (between two to five day old) were added to each well, and sustained with a 10% sucrose solution in a cotton wool plug. Assessment of the knockdown after 1 hour was carried out. Where multiple replicates of a treatment have been undertaken, the mean of those replicates is reported.

The subject of a further experiment is Aedes aegypti. The experiment can be described thus: 12 well plate knockdown test. Conditions: 1 h, read-out: Aedes aegypti 1 hour % KD; for pest or weed control at 0.2 ppm: Rate 0.2 PPM; for pest or weed control at 2 ppm: Rate 2 PPM; for pest or weed control at 20 ppm: Rate 20 PPM; for pest or weed control at 200 ppm: Rate 200 PPM. On the procedure: as §1
For experiment [2], the system named is Anopheles stephensi. Nature of the experiment: 6 well plate test, knockdown after 1 hour and mortality after 24 and 48 hours. Further details: KD: unit not given here. Conditions: for KD: after 1 hour. On the procedure: The individual wells of six (6) well tissue culture plates were treated with […] of an ethanol solution containing a test compound at a defined concentration. Once the deposits were dry, ten non-blood fed adult female Anopheles stephensi (between two to five day old) were added to each well, and sustained with a 10% sucrose solution in a cotton wool plug. Assessment of the knockdown after 1 hour (Tables B1-B10), and mortality after 24 and 48 hours (Tables B1-B4) was carried out.
In case of multiple tests, the mean value is reported.

With `CCN(Cc1ccccc1)C(=O)c1cnccc1C(F)(F)F` [I.15], in the experiment with Anopheles stephensi [1], the pest or weed control at 0.2 ppm worked out at 0%, the pest or weed control at 2 ppm came out at 0%, the pest or weed control at 20 ppm amounted to 0% and the pest or weed control at 200 ppm worked out at 0%. In the experiment on Aedes aegypti, the pest or weed control at 0.2 ppm is 100%, the pest or weed control at 2 ppm came to 100%, the pest or weed control at 20 ppm worked out at 100% and the pest or weed control at 200 ppm was 100%.
On to `CC(C)CC(=O)ON(C)C(=O)c1cnccc1C(F)(F)F` [I.10], for which, in the experiment with Anopheles stephensi [1], the pest or weed control at 0.2 ppm is 40%, the pest or weed control at 2 ppm amounted to 60%, the pest or weed control at 20 ppm was 100% and the pest or weed control at 200 ppm turned out to be 100%. In the experiment on Aedes aegypti, the pest or weed control at 0.2 ppm amounted to 100%, the pest or weed control at 2 ppm came out at 100%, the pest or weed control at 20 ppm was found to be 100% and the pest or weed control at 200 ppm is 100%.
Consider `NC(=S)c1cnccc1C(F)(F)F` [I.22], for which, in the experiment with Anopheles stephensi [1], the pest or weed control at 0.2 ppm came to 40%, the pest or weed control at 2 ppm is 60%, the pest or weed control at 20 ppm was 60% and the pest or weed control at 200 ppm stood at 100%. Moreover, in the experiment on Aedes aegypti, the pest or weed control at 0.2 ppm amounted to 100%, the pest or weed control at 2 ppm came to 100%, the pest or weed control at 20 ppm stood at 100% and the pest or weed control at 200 ppm was found to be 100%.
As to `CN(C)CNC(=O)c1cnccc1C(F)(F)F` [I.6], in the experiment with Anopheles stephensi [1], the pest or weed control at 0.2 ppm came out at 0%, the pest or weed control at 2 ppm was 20%, the pest or weed control at 20 ppm came to 40% and the pest or weed control at 200 ppm worked out at 40%. Besides, in the experiment with Aedes aegypti, the pest or weed control at 0.2 ppm was 100%, the pest or weed control at 2 ppm was found to be 100%, the pest or weed control at 20 ppm came to 100% and the pest or weed control at 200 ppm was determined as 100%.
As to `FC(F)(F)c1ccncc1C1=NCCN1` [I.20], in the experiment with Anopheles stephensi [1], the pest or weed control at 0.2 ppm was found to be 20%, the pest or weed control at 2 ppm was 60%, the pest or weed control at 20 ppm was 100% and the pest or weed control at 200 ppm amounted to 100%. For the same molecule, in the experiment with Aedes aegypti, the pest or weed control at 0.2 ppm was 0%, the pest or weed control at 2 ppm turned out to be 40%, the pest or weed control at 20 ppm turned out to be 100% and the pest or weed control at 200 ppm turned out to be 100%.
Take `CCN(CC)c1nc(C)cc(OP(=S)(OC)OC)n1` [pirimiphos-methyl]: the 24 hr mort with Anopheles stephensi [2] (Table B3, 0.03125 ppm alone) worked out at 0.0; with Anopheles stephensi [2] (Table B3, 0.0625 ppm alone) it was 0.0; with Anopheles stephensi [2] (Table B3, 0.125 ppm alone), 0.0; in the experiment on Anopheles stephensi [2] (Table B3, 0.25 ppm alone) it was 50.0; in the experiment with Anopheles stephensi [2] (Table B3, 0.5 ppm alone) it was 100.0; in the experiment with Anopheles stephensi [2] (Table B3, 1 ppm alone), 100.0. In addition, the 48 hr mort amounted to 0.0 in the experiment with Anopheles stephensi [2] (Table B3, 0.03125 ppm alone); 0.0 with Anopheles stephensi [2] (Table B3, 0.0625 ppm alone); 0.0 in the experiment with Anopheles stephensi [2] (Table B3, 0.125 ppm alone); 50.0 with Anopheles stephensi [2] (Table B3, 0.25 ppm alone); 100.0 with Anopheles stephensi [2] (Table B3, 0.5 ppm alone); 100.0 in the experiment with Anopheles stephensi [2] (Table B3, 1 ppm alone). Moreover, the KD with Anopheles stephensi [2] (Table B3, 0.03125 ppm alone) was 0.0; in the experiment on Anopheles stephensi [2] (Table B3, 0.0625 ppm alone), 0.0; in the experiment with Anopheles stephensi [2] (Table B3, 0.125 ppm alone), 0.0; in the experiment with Anopheles stephensi [2] (Table B3, 0.25 ppm alone), 0.0; in the experiment on Anopheles stephensi [2] (Table B3, 0.5 ppm alone) it was 0.0; with Anopheles stephensi [2] (Table B3, 1 ppm alone) it was 10.0. Moreover, the “knockdown after 1 hour, Alone” value with Anopheles stephensi [2] (Table B10, 0.0625 ppm) was found to be 0.0; in the experiment with Anopheles stephensi [2] (Table B10, 0.125 ppm), 0.0; in the experiment on Anopheles stephensi [2] (Table B10, 0.25 ppm) it was 50.0; with Anopheles stephensi [2] (Table B10, 0.5 ppm) it was 100.0; with Anopheles stephensi [2] (Table B10, 1 ppm), 100.0.
As for `CC(C)NOC(=O)c1cnccc1C(F)(F)F` [I.12], in the experiment on Anopheles stephensi [1], the pest or weed control at 0.2 ppm is 0%, the pest or weed control at 2 ppm turned out to be 80%, the pest or weed control at 20 ppm was determined as 100% and the pest or weed control at 200 ppm stood at 100%. Further, in the experiment on Aedes aegypti, the pest or weed control at 0.2 ppm was found to be 100%, the pest or weed control at 2 ppm is 100%, the pest or weed control at 20 ppm was determined as 100% and the pest or weed control at 200 ppm worked out at 100%.
Regarding `CC(=O)CNC(=O)c1cnccc1C(F)(F)F` [I.23], in the experiment with Anopheles stephensi [1], the pest or weed control at 0.2 ppm turned out to be 0%, the pest or weed control at 2 ppm is 20%, the pest or weed control at 20 ppm was 40% and the pest or weed control at 200 ppm came to 100%. In the experiment on Aedes aegypti, the pest or weed control at 0.2 ppm came to 40%, the pest or weed control at 2 ppm was found to be 100%, the pest or weed control at 20 ppm is 100% and the pest or weed control at 200 ppm was 100%.
With `COCCOC(=O)ON(C(=O)c1cnccc1C(F)(F)F)C(C)C` [I.29], in the experiment with Anopheles stephensi [1], the pest or weed control at 0.2 ppm is 20%, the pest or weed control at 2 ppm turned out to be 60%, the pest or weed control at 20 ppm turned out to be 100% and the pest or weed control at 200 ppm amounted to 100%. In the experiment on Aedes aegypti, the pest or weed control at 0.2 ppm is 0%, the pest or weed control at 2 ppm worked out at 0%, the pest or weed control at 20 ppm was 0% and the pest or weed control at 200 ppm was found to be 100%.
As to `CCOCn1c(-c2ccc(Cl)cc2)c(C#N)c(Br)c1C(F)(F)F` [chlorfenapyr], the 24 hr mort with Anopheles stephensi [2] (Table B1, 0.0625 ppm alone) came out at 0.0; in the experiment on Anopheles stephensi [2] (Table B1, 0.125 ppm alone), 0.0; with Anopheles stephensi [2] (Table B1, 0.25 ppm alone) it was 0.0; in the experiment on Anopheles stephensi [2] (Table B1, 0.5 ppm alone), 0.0; with Anopheles stephensi [2] (Table B1, 1 ppm alone), 6.7; in the experiment on Anopheles stephensi [2] (Table B1, 2 ppm alone) it was 40.0. The 24 hr mort with Anopheles stephensi [2] (Table B2, 0.0625 ppm alone) stood at 0.0; with Anopheles stephensi [2] (Table B2, 0.125 ppm alone), 0.0; with Anopheles stephensi [2] (Table B2, 0.25 ppm alone), 0.0; in the experiment on Anopheles stephensi [2] (Table B2, 0.5 ppm alone), 0.0; with Anopheles stephensi [2] (Table B2, 1 ppm alone) it was 20.0; with Anopheles stephensi [2] (Table B2, 2 ppm alone) it was 50.0. Further, the 48 hr mort in the experiment with Anopheles stephensi [2] (Table B1, 0.0625 ppm alone) is on record as 0.0; with Anopheles stephensi [2] (Table B1, 0.125 ppm alone), 0.0; with Anopheles stephensi [2] (Table B1, 0.25 ppm alone), 3.3; with Anopheles stephensi [2] (Table B1, 0.5 ppm alone) it was 16.7; in the experiment with Anopheles stephensi [2] (Table B1, 1 ppm alone), 50.0; with Anopheles stephensi [2] (Table B1, 2 ppm alone), 90.0. The 48 hr mort came to 0.0 in the experiment with Anopheles stephensi [2] (Table B2, 0.0625 ppm alone); 0.0 in the experiment on Anopheles stephensi [2] (Table B2, 0.125 ppm alone); 0.0 with Anopheles stephensi [2] (Table B2, 0.25 ppm alone); 0.0 with Anopheles stephensi [2] (Table B2, 0.5 ppm alone); 40.0 in the experiment on Anopheles stephensi [2] (Table B2, 1 ppm alone); 100.0 with Anopheles stephensi [2] (Table B2, 2 ppm alone). The KD in the experiment with Anopheles stephensi [2] (Table B1, 0.0625 ppm alone) was 0.0; in the experiment with Anopheles stephensi [2] (Table B1, 0.125 ppm alone), 0.0; in the experiment on Anopheles stephensi [2] (Table B1, 0.25 ppm alone), 0.0; in the experiment with Anopheles stephensi [2] (Table B1, 0.5 ppm alone), 0.0; in the experiment with Anopheles stephensi [2] (Table B1, 1 ppm alone), 0.0; in the experiment with Anopheles stephensi [2] (Table B1, 2 ppm alone), 0.0. Besides, the KD in the experiment with Anopheles stephensi [2] (Table B2, 0.0625 ppm alone) was 0.0; with Anopheles stephensi [2] (Table B2, 0.125 ppm alone), 0.0; in the experiment with Anopheles stephensi [2] (Table B2, 0.25 ppm alone), 0.0; in the experiment with Anopheles stephensi [2] (Table B2, 0.5 ppm alone), 0.0; with Anopheles stephensi [2] (Table B2, 1 ppm alone), 0.0; in the experiment with Anopheles stephensi [2] (Table B2, 2 ppm alone), 0.0.
On to `CC1(C)[C@H](C(=O)O[C@H](C#N)c2cccc(Oc3ccccc3)c2)[C@@H]1/C=C(\Cl)C(F)(F)F` (racemic) [Lambda-cyhalothrin], for which the “knockdown after 1 hour, Alone” value in the experiment on Anopheles stephensi [2] (Table B5, 0.025 ppm) came to 0; with Anopheles stephensi [2] (Table B5, 0.05 ppm), 0; with Anopheles stephensi [2] (Table B5, 0.1 ppm) it was 0; in the experiment on Anopheles stephensi [2] (Table B5, 0.2 ppm), 40.
For `CC(C#N)NC(=O)c1cnccc1C(F)(F)F` (stereo not shown) [I.11], in the experiment with Aedes aegypti, the pest or weed control at 0.2 ppm turned out to be 100%, the pest or weed control at 2 ppm turned out to be 100%, the pest or weed control at 20 ppm turned out to be 100% and the pest or weed control at 200 ppm came to 100%.
`CNC(=O)c1cc(C#N)cc(C)c1NC(=O)c1cc(Br)nn1-c1ncccc1Cl` [Cyantraniliprole]: the “knockdown after 1 hour, Alone” value in the experiment on Anopheles stephensi [2] (Table B8, 6.25 ppm) is given as 0; in the experiment with Anopheles stephensi [2] (Table B8, 12.5 ppm), 0; in the experiment with Anopheles stephensi [2] (Table B8, 25 ppm), 0; with Anopheles stephensi [2] (Table B8, 50 ppm), 0; with Anopheles stephensi [2] (Table B8, 100 ppm) it was 0; in the experiment on Anopheles stephensi [2] (Table B8, 200 ppm), 20.
For the molecule `CNC(=O)c1cc(Cl)cc(C)c1NC(=O)c1cc(Br)nn1-c1ncccc1Cl` [Chlorantraniliprole], the “knockdown after 1 hour, Alone” value with Anopheles stephensi [2] (Table B9, 12.5 ppm) is 0; in the experiment with Anopheles stephensi [2] (Table B9, 25 ppm) it was 0; with Anopheles stephensi [2] (Table B9, 50 ppm) it was 0; in the experiment with Anopheles stephensi [2] (Table B9, 100 ppm), 20; in the experiment on Anopheles stephensi [2] (Table B9, 200 ppm), 40.
